8 substances from patent US20110039762A1, “TARGETED ANTIMICROBIAL MOIETIES” (C3 JIAN, INC., priority 2009, published 2011) can be followed below.

“Also recorded” adds a separate entry of the source.

For one test, the system named is microorganisms. Description: Peptides having multiple activities (targeting/binding, antimicrobial, growth or phenotype altering).
Settings: not given
The source says: In certain embodiments, peptides described herein can have multiple activities. Thus for example, a peptide can have both binding/targeting activity and antimicrobial activity. Such peptides can be used, e.g., in a chimeric construct, for any or all of these properties. Thus, for example, a peptide designated “B” in Table 8 can be used as a targeting peptide. If it is also designated G or M it can also be used for antimicrobial activity.
Consider CGKLLEQKNFFLKTR [PF-521], for which the Activities entry is given as “G B M”.
With ASKQASKQASKQASKQASKQASRSLKNHLL [PF-523], the Activities entry is recorded as “B M”.
For RRGCTERLRRMARRNAWDLYAEHFY [PF-148], the Activities entry was “G B M”.
Same read-out and setting: as for “PF-C055: peptide having multiple activities (YNLSIYIYFLHTITIAGLITLPFII; Peptide with targeting and/or antimicrobial activity)”, the entry is “G B”; as for GIVLIGLKLIPLLANVLR [PF-322], “G M”; as for LVLRICTDLFTFIKWTIKQRKS [PF-497], “B M”.
Regarding “PF-C131: peptide having multiple activities (QWIVAKREIRMHIYCHISVIHVIIFFG; Peptide with targeting and/or antimicrobial activity)”, the Activities result is given as “G B”.
The same measure, in the same setting: as for “PF-C062: peptide having multiple activities (PLARATEVVATLFIICSLLLYLTR; Peptide with targeting and/or antimicrobial activity)”, the entry is “G B”.

The test system of another test is B. subtilis. Description: MIC (broth microdilution). Format: cell-based, Bacillus subtilis.
Settings: not given
Here is the method:
(§1) Typically, the in vitro antimicrobial activity of antimicrobial agents is tested using standard NCCLS bacterial inhibition assays, or MIC tests (see, National Committee on Clinical Laboratory Standards “Performance Standards for Antimicrobial Susceptibility Testing,” NCCLS Document M100-S5 Vol. 14, No. 16, December 1994; “Methods for dilution antimicrobial susceptibility test for bacteria that grow aerobically-Third Edition,” Approved Standard M7-A3, National Committee for Clinical Standards, Villanova, Pa.).
(§2) Briefly, ˜1×10^5 cfu/mL bacteria were diluted in TH (S. mutans), or Mueller-Hinton (MH) broth (all other organisms) and distributed to 96-well plates. Serially-diluted (2-fold) peptides were then added and the plates incubated at 37° C. for 18-24 h. […] All experiments were conducted 10 times.
With RRGCTERLRRMARRNAWDLYAEHFY [PF-148], the MIC result was “B. subtilis, 50 μM”.
The same measure, in the same setting: the same measure for GIVLIGLKLIPLLANVLR [PF-322]: “B. subtilis, 50 μM”; for LVLRICTDLFTFIKWTIKQRKS [PF-497]: “B. subtilis, 50 μM”.

The test system of a further test is S. pneumoniae. Description: Kill or inhibit growth/proliferation; morphology, biofilm and growth disruption (Tables 5, 6). Format: cell-based, Streptococcus pneumoniae. Also noted: key: A: Peptide aggregates; B: Less hyphal formation; Clumps; Diffuse clumps and small polyps; F: Diffuse growth; H: Thin; I: Growth inhibition; Microcolony formation; Rippled; Small polyps; Thick; W: Halo formation on top, microlonies on bottom.
Settings: not given
Turning to CGKLLEQKNFFLKTR [PF-521], the “Organism, effect” value was “S. pneumoniae (H)”.
Same read-out and setting: as for RRGCTERLRRMARRNAWDLYAEHFY [PF-148], the entry is “S. pneumoniae (R)”.

Another test deals with M. luteus. Described as above.
Settings: not given
Also noted: key: A: Peptide aggregates; B: Less hyphal formation; Clumps; Diffuse clumps and small polyps; F: Diffuse growth; H: Thin; I: Growth inhibition; Microcolony formation; Rippled; Small polyps; Thick; W: Halo formation on top, microlonies on bottom. Format: cell-based, Micrococcus luteus.
On to RRGCTERLRRMARRNAWDLYAEHFY [PF-148], for which the “Organism, effect” value is reported as “M. luteus (A)”.

Another test has as its system C. jeikeium. The description is as above.
Settings: not given
Also noted: key: A: Peptide aggregates; B: Less hyphal formation; Clumps; Diffuse clumps and small polyps; F: Diffuse growth; H: Thin; I: Growth inhibition; Microcolony formation; Rippled; Small polyps; Thick; W: Halo formation on top, microlonies on bottom. Format: cell-based, Corynebacterium jeikeium.
RRGCTERLRRMARRNAWDLYAEHFY [PF-148]: the “Organism, effect” value is listed as “C. jeikeium (H)”.

The test system of another test is S. pneumoniae. Description: MIC (broth microdilution).
Settings: not given
Format: cell-based, Streptococcus pneumoniae. The method, then:
as §1, §2
In general terms: Dilution methods test growth across graded concentrations, often in twofold steps.
Turning to CGKLLEQKNFFLKTR [PF-521], the MIC entry is given as “S. pneumoniae, 50 μM”.
For ASKQASKQASKQASKQASKQASRSLKNHLL [PF-523], the MIC result was “S. pneumoniae, 50 μM”.

The subject of a further test is A. niger. Description: MIC (broth microdilution). Format: cell-based, Aspergillus niger.
Settings: not given
The method, then: as §1, §2
For RRGCTERLRRMARRNAWDLYAEHFY [PF-148], the MIC entry was “A. niger, 50 μM”.

Another test concerns C. albicans. Description: Kill or inhibit growth/proliferation; morphology, biofilm and growth disruption (Tables 5, 6). Format: cell-based, Candida albicans. Also noted: key: A: Peptide aggregates; B: Less hyphal formation; Clumps; Diffuse clumps and small polyps; F: Diffuse growth; H: Thin; I: Growth inhibition; Microcolony formation; Rippled; Small polyps; Thick; W: Halo formation on top, microlonies on bottom.
Settings: not given
With RRGCTERLRRMARRNAWDLYAEHFY [PF-148], the “Organism, effect” value is given as “C. albicans (B)”.

Another test has as its system F. nucleatum. Described as above.
Settings: not given
Format: cell-based, Fusobacterium nucleatum. Also noted: key: A: Peptide aggregates; B: Less hyphal formation; Clumps; Diffuse clumps and small polyps; F: Diffuse growth; H: Thin; I: Growth inhibition; Microcolony formation; Rippled; Small polyps; Thick; W: Halo formation on top, microlonies on bottom.
Turning to “PF-C055: peptide having multiple activities (YNLSIYIYFLHTITIAGLITLPFII; Peptide with targeting and/or antimicrobial activity)”, the “Organism, effect (morphology, biofilm and growth disruption)” value is “F. nucleatum (T)”.
Still for that read-out and setting: the same measure for “PF-C131: peptide having multiple activities (QWIVAKREIRMHIYCHISVIHVIIFFG; Peptide with targeting and/or antimicrobial activity)”: “F. nucleatum (T)”; for “PF-C062: peptide having multiple activities (PLARATEVVATLFIICSLLLYLTR; Peptide with targeting and/or antimicrobial activity)”: “F. nucleatum (T)”.

A further test concerns B. subtilis. Described as above. Format: cell-based, Bacillus subtilis. On the set-up: key: A: Peptide aggregates; B: Less hyphal formation; Clumps; Diffuse clumps and small polyps; F: Diffuse growth; H: Thin; I: Growth inhibition; Microcolony formation; Rippled; Small polyps; Thick; W: Halo formation on top, microlonies on bottom.
Settings: not given
With RRGCTERLRRMARRNAWDLYAEHFY [PF-148], the “Organism, effect” value was “B. subtilis (I)”.
In the case of GIVLIGLKLIPLLANVLR [PF-322], the “Organism, effect” value is given as “B. subtilis (H)”.

For the next test, the system named is S. mutans. The description is as above. Format: cell-based, Streptococcus mutans. On the set-up: key: A: Peptide aggregates; B: Less hyphal formation; Clumps; Diffuse clumps and small polyps; F: Diffuse growth; H: Thin; I: Growth inhibition; Microcolony formation; Rippled; Small polyps; Thick; W: Halo formation on top, microlonies on bottom.
Settings: not given
As to “PF-C055: peptide having multiple activities (YNLSIYIYFLHTITIAGLITLPFII; Peptide with targeting and/or antimicrobial activity)”, the “Organism, effect (morphology, biofilm and growth disruption)” value was “S. mutans (I)”.
In the case of “PF-C131: peptide having multiple activities (QWIVAKREIRMHIYCHISVIHVIIFFG; Peptide with targeting and/or antimicrobial activity)”, the “Organism, effect (morphology, biofilm and growth disruption)” value is on record as “S. mutans (F)”.
On the same count and under the same terms, the same measure for “PF-C062: peptide having multiple activities (PLARATEVVATLFIICSLLLYLTR; Peptide with targeting and/or antimicrobial activity)”: “S. mutans (I)”.

The subject of the next test is MRSA. The description is as above. Format: cell-based, Methicillin-resistant Staphylococcus aureus. Also noted: key: A: Peptide aggregates; B: Less hyphal formation; Clumps; Diffuse clumps and small polyps; F: Diffuse growth; H: Thin; I: Growth inhibition; Microcolony formation; Rippled; Small polyps; Thick; W: Halo formation on top, microlonies on bottom.
Settings: not given
With RRGCTERLRRMARRNAWDLYAEHFY [PF-148], the “Organism, effect” value was “MRSA (C)”.

The subject of a further test is C. jejuni. The description is as above. Format: cell-based, Campylobacter jejuni.
Settings: not given
Also noted: key: A: Peptide aggregates; B: Less hyphal formation; Clumps; Diffuse clumps and small polyps; F: Diffuse growth; H: Thin; I: Growth inhibition; Microcolony formation; Rippled; Small polyps; Thick; W: Halo formation on top, microlonies on bottom.
In the case of RRGCTERLRRMARRNAWDLYAEHFY [PF-148], the “Organism, effect” value is given as “C. jejuni (H)”.

Another test has as its system microorganisms (e.g., bacteria, yeasts, fungi). Description: Targeting peptide binding to target microorganisms (Table 3). To be noted: microorganism(s) the targeting peptide binds; peptide binding conducted in aqueous buffers varied by peptide solubility, preferably 1x PBS.
In the case of CGKLLEQKNFFLKTR [PF-521], the “Target(s)” value is reported as “S. epidermidis; also recorded: E. coli; also recorded: P. aeruginosa; also recorded: S. pneumoniae; also recorded: E. faecalis”.
Turning to ASKQASKQASKQASKQASKQASRSLKNHLL [PF-523], the “Target(s)” value is given as “S. epidermidis; also recorded: M. luteus; also recorded: C. albicans; also recorded: S. pneumoniae; also recorded: C. jeikeium; also recorded: C. jejuni”.
Still for that read-out and setting: as for LVLRICTDLFTFIKWTIKQRKS [PF-497], the entry is “S. mutans; also recorded: B. subtilis; also recorded: E. coli”.

Staying with this test, now noted: peptide binding in aqueous buffers varied by peptide solubility; preferably 1x PBS.
On to “PF-C055: peptide having multiple activities (YNLSIYIYFLHTITIAGLITLPFII; Peptide with targeting and/or antimicrobial activity)”, for which the “Target(s) (microorganisms bound by the targeting peptide)” value is recorded as “A. naeslundii; also recorded: F. nucleatum; also recorded: P. gingivalis; also recorded: S. mutans”.
The same measure, in the same setting: as for “PF-C131: peptide having multiple activities (QWIVAKREIRMHIYCHISVIHVIIFFG; Peptide with targeting and/or antimicrobial activity)”, the entry is “A. naeslundii; also recorded: F. nucleatum; also recorded: P. gingivalis; also recorded: S. mutans”; as for “PF-C062: peptide having multiple activities (PLARATEVVATLFIICSLLLYLTR; Peptide with targeting and/or antimicrobial activity)”, “A. naeslundii; also recorded: F. nucleatum; also recorded: P. gingivalis; also recorded: S. mutans; also recorded: T. denticola”.

A further test deals with S. epidermidis. Nature of the test: Kill or inhibit growth/proliferation; morphology, biofilm and growth disruption (Tables 5, 6). Format: cell-based, Staphylococcus epidermidis. On the set-up: key: A: Peptide aggregates; B: Less hyphal formation; Clumps; Diffuse clumps and small polyps; F: Diffuse growth; H: Thin; I: Growth inhibition; Microcolony formation; Rippled; Small polyps; Thick; W: Halo formation on top, microlonies on bottom.
Settings: not given
Consider RRGCTERLRRMARRNAWDLYAEHFY [PF-148], for which the “Organism, effect” value is recorded as “S. epidermidis (D)”.
The same measure, in the same setting: as for GIVLIGLKLIPLLANVLR [PF-322], the entry is “S. epidermidis (C)”.
